From patent US9598440B2, “Inhibitors of IRAK4 activity” (MERCK SHARP & DOHME CORP., priority 2012, dated 2017)
Blank lines part the entries; values can stand above or below the molecule they belong to.

Target: IRAK4 (Homo sapiens (Human), UniProt Q9NWZ3)
Assay: Determination of IRAK4 kinase activity (IMAP fluorescence polarization, phosphorylation of fluorescent peptide substrate)
Format: biochemical
Conditions: 0.5 nM GST tagged IRAK4, 100 nM peptide substrate RP7030, 100 μM ATP, 30 minutes at 25° C.
Summary of the method: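 GST-tagged IRAK4 (0.5 nM) phosphorylated 100 nM fluorescent peptide substrate with 100 µM ATP in Tris-HCl pH 7.2, 1 mM MgCl2, 1 mM DTT, 0.01% Tween 20 for 30 min at 25 °C. Phosphorylation read by IMAP nanoparticle binding as fluorescence polarization increase.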

Sequence of IRAK4 (Q9NWZ3 whole entry): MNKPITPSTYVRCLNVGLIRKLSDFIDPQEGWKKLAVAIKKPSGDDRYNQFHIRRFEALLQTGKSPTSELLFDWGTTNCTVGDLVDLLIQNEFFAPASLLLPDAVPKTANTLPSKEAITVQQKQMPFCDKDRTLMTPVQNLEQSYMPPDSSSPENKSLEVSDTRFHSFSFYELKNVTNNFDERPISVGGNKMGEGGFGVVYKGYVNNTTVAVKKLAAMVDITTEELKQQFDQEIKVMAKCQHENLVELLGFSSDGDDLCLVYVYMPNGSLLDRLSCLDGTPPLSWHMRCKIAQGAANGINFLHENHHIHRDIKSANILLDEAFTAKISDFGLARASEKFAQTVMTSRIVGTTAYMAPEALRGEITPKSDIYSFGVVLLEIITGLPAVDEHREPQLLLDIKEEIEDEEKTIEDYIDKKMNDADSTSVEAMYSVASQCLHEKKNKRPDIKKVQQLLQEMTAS

SMILES: Cc1nc(NCC2CCNCC2)nc(N[C@@H]2C[C@H](CO)[C@@H](O)[C@H]2O)c1-c1nc2ccccc2s1 [Example 93, (1R,2S,3R,5R)-3-((5-(benzo[d]thiazol-2-yl)-6-methyl-2-((piperidin-4-ylmethyl)amino)pyrimidin-4-yl)amino)-5-(hydroxymethyl)cyclopentane-1,2-diol]
IC50: 13100 nM

SMILES: Cc1nc(Nc2ccnc(F)c2)nc(N[C@@H]2C[C@H](CO)[C@@H](O)[C@H]2O)c1-c1nc2ccccc2s1 [Example 86, (1R,2S,3R,5R)-3-((5-(benzo[d]thiazol-2-yl)-2-((2-fluoropyridin-4-yl)amino)-6-methylpyrimidin-4-yl)amino)-5-(hydroxymethyl)cyclopentane-1,2-diol]
IC50: 430 nM

SMILES: CC(C)(O)[C@H]1C[C@@H](Nc2nc(Nc3cccc(C(N)=O)c3)ncc2-c2nc3ccccc3s2)[C@H](O)[C@@H]1O [Example 129, 3-((5-(benzo[d]thiazol-2-yl)-4-(((1R,2S,3R,4S)-2,3-dihydroxy-4-(2-hydroxypropan-2-yl)cyclopentyl)amino)pyrimidin-2-yl)amino)benzamide]
IC50: 1.4 nM

SMILES: Cc1cc(Nc2ncc(-c3nc4ccccc4s3)c(N[C@@H]3C[C@H](C(C)(C)O)[C@@H](O)[C@H]3O)n2)ccn1 [Example 127, (1R,2S,3R,5S)-3-((5-(benzo[d]thiazol-2-yl)-2-((2-methylpyridine-4-yl)amino)pyrimidin-4-yl)amino)-5-(2-hydroxypropan-2-yl)cyclopentane-1,2-diol]
IC50: 16 nM

SMILES: Cc1cc(Nc2nc(C)c(-c3nc4ccccc4s3)c(N[C@@H]3C[C@H](CO)[C@@H](O)[C@H]3O)n2)cc(C)n1 [Example 87, (1R,2S,3R,5R)-3-((5-(benzo[d]thiazol-2-yl)-2-((2,6-dimethylpyridin-4-yl)amino)-6-methylpyrimidin-4-yl)amino)-5-(hydroxymethyl)cyclopentane-1,2-diol]
IC50: 119 nM

SMILES: CN(C)c1cccc(Nc2ncc(-c3nc4ccccc4s3)c(N[C@@H]3C[C@H](CO)[C@@H](O)[C@H]3O)n2)c1 [Example 39, (1R,2S,3R,5R)-3-((5-(benzo[d]thiazol-2-yl)-2-((3-(dimethylamino)phenyl)amino)pyrimidin-4-yl)amino)-5-(hydroxymethyl)cyclopentane-1,2-diol]
IC50: 8.9 nM

SMILES: COc1cc(Nc2nc(C)c(-c3nc4ccccc4s3)c(N[C@@H]3C[C@H](CO)[C@@H](O)[C@H]3O)n2)ccn1 [Example 105, (1R,2S,3R,5R)-3-((5-(benzo[d]thiazol-2-yl)-2-((2-methoxypyridin-4-yl)amino)-6-methylpyrimidin-4-yl)amino)-5-(hydroxymethyl)cyclopentane-1,2-diol]
IC50: 93 nM

SMILES: Cc1cc(Nc2ncc(-c3nc(C)cs3)c(N[C@@H]3C[C@H](C(C)(C)O)[C@@H](O)[C@H]3O)n2)cc(C)n1 [Example 133, (1R,2S,3R,5S)-3-((2-((2,6-dimethylpyridin-4-yl)amino)-5-(4-methylthiazol-2-yl)pyrimidin-4-yl)amino)-5-(2-hydroxypropan-2-yl)cyclopentane-1,2-diol]
IC50: 0.2 nM

Next, values leading:

IC50: 4.8 nM
SMILES: OC[C@H]1C[C@@H](Nc2nc(Nc3cncnc3)ncc2-c2nc3ccccc3s2)[C@H](O)[C@@H]1O [Example 26, (1R,2S,3R,5R)-3-((5-(benzo[d]thiazol-2-yl)-2-(pyrimidin-5-ylamino)pyrimidin-4-yl)amino)-5-(hydroxymethyl)cyclopentane-1,2-diol]

IC50: 1470 nM
SMILES: OC[C@H]1C[C@@H](Nc2nc(NC3CC3)ncc2-c2ccc3ccccc3n2)[C@H](O)[C@@H]1O [Example 60, 2-(cyclopropylamino)-6-(((1R,2S,3R,4R)-2,3-dihydroxy-4-(hydroxymethyl)cyclopentyl)amino)-5-(quinolin-2-yl)pyrimidine]

IC50: 1470 nM
SMILES: OC[C@H]1C[C@@H](Nc2nc(NC3CCCOC3)ncc2-c2nc3ccccc3s2)[C@H](O)[C@@H]1O (mixture of isomers) [Example 49, (1R,2S,3R,5R)-3-((5-(benzo[d]thiazol-2-yl)-2-(((RS)-tetrahydro-2H-pyran-3-yl)amino)pyrimidin-4-yl)amino)-5-(hydroxymethyl)cyclopentane-1,2-diol]

IC50: 4.6 nM
SMILES: COc1cc(Nc2ncc(-c3nc4ccccc4s3)c(N[C@@H]3C[C@H](CO)[C@@H](O)[C@H]3O)n2)ccn1 [Example 7, (1R,2S,3R,5R)-3-((5-(benzo[d]thiazol-2-yl)-2-((2-methoxypyridin-4-yl)amino)pyrimidin-4-yl)amino)-5-(hydroxymethyl)cyclopentane-1,2-diol]
